Test results reported in ChEMBL document CHEMBL3044995, “Synthesis of allylic trifluoromethyl ketones and their activity as inhibitors of the sex pheromone of the leopard moth, Zeuzera pyrina L. (Lepidoptera: Cossidae)” (Pest Manag Sci, 2011).
≈ marks a conversion by molar mass, not a printed value. Calls of active or inactive are those of the source. No cut-off for these calls is given here.

Columns and labels:
[1] = Toxicity in Swiss Mus musculus (mouse) measured after 6 days; format: organism-based; settings: in vivo
Zeuzera pyrina [2] = assay: Effect on response of Zeuzera pyrina males to the calling female assessed as flight towords source up to 10 ug by Wind tunnel assay; format: functional
Zeuzera pyrina [3] = assay: Inhibition of electroantennogram response of Zeuzera pyrina males to sex pheromone at 0.1 ug/antenna topical application by electrophysiology; format: functional, organism-based
Zeuzera pyrina [4] = assay: Inhibition of electroantennogram response of Zeuzera pyrina males to sex pheromone at 1 ug/antenna topical application by electrophysiology; format: functional
Zeuzera pyrina [5] = assay: Effect on response of Zeuzera pyrina males to the calling female assessed as complete upwind fligts up to 10 ug by Wind tunnel assay; format: functional
Zeuzera pyrina [6] = assay: Effect on response of Zeuzera pyrina males to the calling female assessed as male took off up to 10 ug by Wind tunnel assay; format: functional
Zeuzera pyrina [7] = assay: Effect on response of Zeuzera pyrina males to the calling female assessed as contact to female up to 10 ug by Wind tunnel assay; format: functional
Daphnia = assay: Toxicity in Daphnia assessed as survial; format: organism-based
Zeuzera pyrina [8] = assay: Inhibition of electroantennogram response of Zeuzera pyrina males to sex pheromone at =>0.05 ug/antenna topical application by electrophysiology; format: functional, organism-based
Zeuzera pyrina [9] = assay: Inhibition of electroantennogram response of Zeuzera pyrina males to sex pheromone at 0.5 ug/antenna topical application by electrophysiology; format: functional, organism-based

CCCCCCCCSCC(=O)C(F)(F)F
LD50 at 144 h [1]: 1000 mg/kg

CCCC/C=C\CCCCCCCC/C=C/CCC(=O)C(F)(F)F
Activity (Zeuzera pyrina [2]): 62% | Activity (Zeuzera pyrina [3]): Active | inhibition (INH) (Zeuzera pyrina [4]): >80% | Activity (Zeuzera pyrina [5]): 55% | Activity (Zeuzera pyrina [6]): 95% | Activity (Zeuzera pyrina [7]): 55%

CCCC/C=C\CCCCCCCCCCC(=O)C(F)(F)F
EC50 (Daphnia): 0.07 µg/mL (≈ 0.218 µM) | LD50 at 144 h [1]: 1000 mg/kg

CCCC/C=C\CCCCCCCCC/C=C/CC(=O)C(F)(F)F
inhibition (Zeuzera pyrina [8]): Active | Activity (Zeuzera pyrina [3]): Active | inhibition (INH) (Zeuzera pyrina [4]): >80% | inhibition (Zeuzera pyrina [9]): Active
